Measurements published in patent EP0969089A1, “Phytase formulation” (F. HOFFMANN-LA ROCHE AG, priority 1998, dated 2000).
Where two headings read alike, the source gives them in different places.

How the values were obtained:
[1] = biological target: T1, A. fumigatus phytase (Aspergillus fumigatus, UniProt O00092); assay type: biochemical; conditions: for effect on the thermostabilization of A. fumigatus phytase: polyols with more than 6 or less than 5 carbon atoms, 65 °C; for temperature at which considerable activity still being detected: dicarboxylate at 25% (12.5% final concentration in the activity assay); for increase in phytase activity measured at 37 °C: dicarboxylates; for effects on the thermostability of the protein: sodium acetate 5, 10 and 25%
T1 construct: made in house; host or cells: Hansenula polymorpha
Method: (§1) After incubation of the sample for 15 mm at the desired temperature (e.g. at 60 or 65 °C for the screening of additive effects), the reaction was stopped by addition of 0.5 ml 15% trichloroacetic acid. Determination of liberated inorganic phosphate was performed by standard methods.
(§2) Disodium malonate, succinate and glutarate were dissolved at concentrations of 5, 10 and 25% and phytase activity was measured after preincubation of enzyme plus additive and substrate (see above) at the following temperatures: 37, 45, 50, 55, 60, 65, 70, 75, 80, and 85 °C. In the same way, the temperature dependence of the activity of different phytases in the presence of 25% xylitol and ribitol was tested. It should be noted that the concentration of the additives was reduced by half after substrate addition.

[2] = Solubility of polyols in assay buffer; conditions: at a concentration of 50% (w/w)
Method: PEGs have been dissolved at a concentration of 50% with the exception of PEGs with a molecular weight of 4000, 8000 and 10000 which were used at a concentration of 25%. For the screening of PEGs and other polyols, the preincubation and reaction temperature was chosen as 60 °C for A. nidulans and A. terreus CBS phytase, 65 °C for A. fumigatus and A. niger phytase and 75 °C for consensus phytase.

[3] = biological target: T2, A. nidulans phytase (Emericella nidulans, UniProt O00093); assay: Effect of stabilizing additives on thermostability of A. nidulans phytase; assay type: biochemical, Aspergillus nidulans; conditions: 25% dicarboxylate
T2 construct: made in house; host or cells: Aspergillus niger
Method: as §1, §2

[4] = biological target: T3, A. terreus CBS phytase (Aspergillus terreus, UniProt O00100); assay: Effect of stabilizing additives on thermostability of A. terreus CBS phytase; assay type: biochemical; conditions: 25% dicarboxylate
T3 construct: made in house; host or cells: Hansenula polymorpha
Method: as §1, §2

[5] = biological target: T4, A. niger phytase (Aspergillus niger, UniProt P34752); assay: Effect of stabilizing additives on thermostability of A. niger phytase; assay type: biochemical; conditions: 25% dicarboxylate
T4 construct: made in house; host or cells: Aspergillus niger
Method: as §1, §2

[6] = tested on: consensus phytase; assay: Effect of stabilizing additives on thermostability of consensus phytase; assay type: biochemical; conditions: for increase of thermostability: 25% dicarboxylate
Method: as §1
as §2, with “In the same way, the temperature dependence of the activity of different phytases in the presence of 25% xylitol and ribitol was tested.” left out

[7] = in the presence of 50% solutions of polyol
[8] = polyol at a concentration of 12.5%
[9] = polyol at a concentration of 25%

T1 sequence (O00092 27-465): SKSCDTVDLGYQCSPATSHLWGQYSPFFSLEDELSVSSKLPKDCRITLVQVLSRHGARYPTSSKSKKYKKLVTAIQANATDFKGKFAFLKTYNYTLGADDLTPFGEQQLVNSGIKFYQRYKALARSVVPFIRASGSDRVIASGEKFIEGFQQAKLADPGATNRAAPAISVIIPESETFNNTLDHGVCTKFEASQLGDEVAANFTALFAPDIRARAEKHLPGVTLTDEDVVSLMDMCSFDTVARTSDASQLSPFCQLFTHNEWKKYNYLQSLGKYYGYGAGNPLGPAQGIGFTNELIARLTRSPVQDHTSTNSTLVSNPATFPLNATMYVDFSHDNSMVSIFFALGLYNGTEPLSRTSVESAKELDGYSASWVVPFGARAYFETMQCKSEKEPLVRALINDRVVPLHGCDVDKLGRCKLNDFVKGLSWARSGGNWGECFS
T4 sequence (P34752 24-467): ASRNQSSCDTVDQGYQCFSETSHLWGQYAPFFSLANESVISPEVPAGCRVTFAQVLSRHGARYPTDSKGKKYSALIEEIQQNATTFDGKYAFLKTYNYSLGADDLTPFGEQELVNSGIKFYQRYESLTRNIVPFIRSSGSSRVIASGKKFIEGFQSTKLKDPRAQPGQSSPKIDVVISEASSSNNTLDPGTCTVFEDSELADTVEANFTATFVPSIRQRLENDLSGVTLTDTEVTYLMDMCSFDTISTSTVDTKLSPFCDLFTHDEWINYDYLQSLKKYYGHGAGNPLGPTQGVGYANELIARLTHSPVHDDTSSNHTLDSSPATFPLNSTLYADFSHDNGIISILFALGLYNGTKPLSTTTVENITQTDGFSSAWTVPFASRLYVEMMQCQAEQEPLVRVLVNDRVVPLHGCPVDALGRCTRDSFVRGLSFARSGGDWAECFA
T2 sequence (O00093 20-463): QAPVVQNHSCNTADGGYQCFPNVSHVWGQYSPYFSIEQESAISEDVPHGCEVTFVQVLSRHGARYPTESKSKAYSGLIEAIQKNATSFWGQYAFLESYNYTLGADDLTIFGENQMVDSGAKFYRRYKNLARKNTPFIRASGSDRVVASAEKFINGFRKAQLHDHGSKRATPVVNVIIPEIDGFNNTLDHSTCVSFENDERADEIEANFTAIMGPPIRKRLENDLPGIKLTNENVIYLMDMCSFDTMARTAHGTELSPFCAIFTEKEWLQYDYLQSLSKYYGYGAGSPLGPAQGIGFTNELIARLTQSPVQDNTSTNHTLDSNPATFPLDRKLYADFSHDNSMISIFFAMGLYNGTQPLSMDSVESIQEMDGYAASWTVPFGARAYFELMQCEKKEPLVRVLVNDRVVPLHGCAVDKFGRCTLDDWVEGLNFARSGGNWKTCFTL
T3 sequence (O00100 20-466): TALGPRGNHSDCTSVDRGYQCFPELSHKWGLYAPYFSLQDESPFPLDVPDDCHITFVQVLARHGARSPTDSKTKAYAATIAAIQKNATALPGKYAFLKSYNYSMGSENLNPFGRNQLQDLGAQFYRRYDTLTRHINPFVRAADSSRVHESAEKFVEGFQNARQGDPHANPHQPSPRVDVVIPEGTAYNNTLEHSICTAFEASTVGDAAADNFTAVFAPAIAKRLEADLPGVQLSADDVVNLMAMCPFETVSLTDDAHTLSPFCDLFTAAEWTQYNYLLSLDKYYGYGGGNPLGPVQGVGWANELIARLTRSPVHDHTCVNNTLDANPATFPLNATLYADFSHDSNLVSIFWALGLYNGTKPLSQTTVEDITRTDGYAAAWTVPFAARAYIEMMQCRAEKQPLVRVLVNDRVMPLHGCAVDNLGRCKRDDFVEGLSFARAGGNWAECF

## OC[C@@H](O)[C@@H](O)CO [erythritol]
[1]
  effect on the thermostabilization of A. fumigatus phytase: inferior effect
[2]
  solubility in 0.2 M sodium acetate, pH 5.0: not soluble

## OCC(O)CO [glycerol]
[1]
  effect on the thermostabilization of A. fumigatus phytase: inferior effect

## O=C(O)CC(=O)O [malonate, disodium malonate]
[1]
  temperature at which considerable activity still being detected: 70 °C
  increase in phytase activity measured at 37 °C: approximately 4 fold
[3]
  increase of thermostability: 5-15 °C
[4]
  increase of thermostability: 5-15 °C
[5]
  increase of thermostability: 5-15 °C
[6]
  increase of thermostability: 5-15 °C

## O=C[C@@H](O)[C@@H](O)[C@H](O)[C@H](O)[C@H](O)CO [mannoheptose]
[1]
  effect on the thermostabilization of A. fumigatus phytase: inferior effect
[2]
  solubility in 0.2 M sodium acetate, pH 5.0: not soluble

## O=C(CO)[C@@H](O)[C@@H](O)[C@H](O)[C@H](O)CO [mannoheptulose]
[1]
  effect on the thermostabilization of A. fumigatus phytase: inferior effect
[2]
  solubility in 0.2 M sodium acetate, pH 5.0: not soluble

## OC[C@@H](O)[C@@H](O)[C@@H](O)CO [ribitol]
[1]; in the presence of 25% polyol
  specific activities measured at 65 °C: 11 U*(mg protein)^-1
[1]; [7]
  specific activities measured at 65 °C: 51 U*(mg protein)^-1
[1]; [8]
  specific activity measured at 65 °C: 11-12 U/mg
[1]; [9]
  specific activity measured at 65 °C: 51-90 U/mg

## CC(=O)O [sodium acetate]
[1]
  effects on the thermostability of the protein: only minor effects
[1]; listed as Sodium acetate
  effects on the thermostability of the protein: no effect

## OC[C@@H](O)[C@@H](O)[C@H](O)[C@@H](O)CO [sorbitol]
[1]; in the presence of 25% polyol
  specific activities measured at 65 °C: 11 U*(mg protein)^-1
[1]; [7]
  specific activities measured at 65 °C: 74 U*(mg protein)^-1

## O=C(O)CCC(=O)O [succinate, disodium succinate]
[1]
  temperature at which considerable activity still being detected: 65 °C
  increase in phytase activity measured at 37 °C: 2 fold
[3]
  increase of thermostability: 5-15 °C
[4]
  increase of thermostability: 5-15 °C
[5]
  increase of thermostability: 5-15 °C
[6]
  increase of thermostability: 5-15 °C

## OC[C@@H](O)[C@H](O)[C@@H](O)CO [xylitol]
[1]; in the presence of 25% polyol
  specific activities measured at 65 °C: 21 U*(mg protein)^-1
[1]; [7]
  specific activities measured at 65 °C: 90 U*(mg protein)^-1
[1]; [8]
  specific activity measured at 65 °C: 11-12 U/mg
[1]; [9]
  specific activity measured at 65 °C: 51-90 U/mg
[6]; xylitol 50%
  increase of temperature optimum: 10-15 °C
